The test system of one assay is HEK293T cell line. Kind of assay: Cell cytotoxicity, MTT assay. The format is cell-based. To be noted: Homo sapiens, HEK-293T, 24 h, healthy cell line.
The subject of another assay is MCF-7 cell line. As to the kind of experiment: Cell cytotoxicity, MTT assay. The format is cell-based, human. To be noted: Homo sapiens, MCF7, 24 h. In general terms: Formazan colour is commonly taken as a measure of viable cells.
The test system of assay [1] is CA IX. Kind of assay: Western blotting of CA IX protein expression in MCF-7 cells. The format is cell-based, human. The conditions noted are these: western blot, hypoxia (200 μM CoCl2), 24 h, three doses. The procedure: (§1) CA IX and CA XII protein expressions were evaluated in treated and control HT-29 and MCF7 cells after hypoxia induction. Cells were seeded in a 6-well plate in DMEM/F12 (normoxic cells) or DMEM/F12 containing 200 μM CoCl2 (hypoxic and treated cells) in order to create hypoxia.[25] HT29 cells were treated with 14 (40, 10, and 1.25 μM), 23 (80, 20, and 1.25 μM), and 66 (80, 20, and 1.25 μM), and MCF7 cells were treated with 14 (40, 10, and 1.25 μM), 23 (80, 20, and 1.25 μM), and 63 (80, 20, and 1.25 μM) for 24 h at three different doses. After the treatment period, cells were washed with cold PBS and homogenized into Ripa cell lysis buffer (Santa Cruz, USA). Samples were prepared, electrophoresed, and transferred according to the literature.[25] The membranes were blocked in 5% fat-free milk (w/v) for 1 h at RT, incubated with the corresponding antibody at 4 °C overnight, and then incubated with the horseradish peroxidase (HRP)-labeled secondary antibody for 1 h at RT. The following antibodies were used: anti-CA IX (ab107257, Abcam), anti-CA XII (sc-374314, Santa Cruz), and anti-GAPDH (A19056, Abclonal). Finally, the membranes were stained with ECL reagents (LumiGLO, CST, USA), and then, imaging was performed with the Bio-Rad Chemidoc Imaging System. The bands were calculated with the Image Lab (Bio-Rad, USA) and analyzed with Graphpad Prism 9.00 (San Diego, CA, USA).
On the technique in general: In western blotting, separated proteins are transferred to a membrane and probed.

For a further assay, the system named is HT-29 cell line. Kind of assay: Cell cytotoxicity, MTT assay. Format: cell-based, human. The conditions noted are these: for IC50: Homo sapiens, HT-29, MTT, 24 h.
Another assay relates to HT-29 cells. As to the kind of experiment: Fluorescence microscopy, PI/Hoechst staining. Format: cell-based, human. To be noted: HT-29, 1.25 μM, 24 h. The procedure:
HT-29 cells were stained with propidium iodide (PI) and Hoechst 33342 for observation of cell viability under the microscope. HT29 cells were treated with 14, 23, and 66 for 24 h at 1.25 μM concentration. After the treatment period cells were rinsed with PBS, fixed with ice-cold ethanol (95%) at −20 °C for 2 h, and then rinsed with PBS again. Cells were incubated with PI and Hoechst for 10 min and observed by using a fluorescence microscope (Zeiss Axio Observer Z1) with the appropriate excitation/detection filters.

For the next assay, the system named is PC-3 cell line. As to the kind of experiment: Cell cytotoxicity, MTT assay. To be noted: Homo sapiens, 24 h. Format: cell-based.
Assay [2] deals with CA XII. Kind of assay: Western blotting of CA XII protein expression in MCF-7 cells. The format is cell-based, human. To be noted: western blot, hypoxia (200 μM CoCl2), 24 h, three doses. The procedure: as §1
Assay [3] relates to CA XII. Kind of assay: Western blotting of CA XII protein expression in HT-29 cells. Format: cell-based, human. The conditions noted are these: western blot, hypoxia (200 μM CoCl2), 24 h, three doses. The procedure:
as §1

The subject of assay [4] is CA IX. As to the kind of experiment: Western blotting of CA IX protein expression in HT-29 cells. To be noted: western blot, hypoxia (200 μM CoCl2), 24 h, three doses. Format: cell-based, human. The procedure:
as §1

A further assay addresses hCA IX (Homo sapiens, UniProt Q16790). As to the kind of experiment: biochemical.

Regarding `Cc1ccc(C(C)C)c(OCc2cn(CCCCOc3ccc4ccc(=O)oc4c3)nn2)c1` [Compound 14, 7-(4-(4-((2-Isopropyl-5-methylphenoxy)methyl)-1H-1,2,3-triazol-1-yl)butoxy)-2H-chromen-2-one], the IC50 (usually the point on the concentration scale where inhibition reaches its midpoint) was 4.57 ± 0.33 µM in the assay with HEK293T cell line, 2.48 ± 0.69 µM in the assay with MCF-7 cell line, 25.1 ± 6.47 µM with HT-29 cell line and 53.8 ± 23.4 µM in the assay on PC-3 cell line. Further, the “CA IX expression in MCF-7 cells” value with CA IX [1] is “decreased”. Moreover, in the assay on HT-29 cells, the “apoptotic/dead cells by PI/Hoechst staining” value (“apoptotic/dead cells” below) is given as “increased apoptotic/dead cells”. In the assay on CA XII [2], the “CA XII expression in MCF-7 cells” value is listed as “decreased”. For the same compound, the “CA XII expression in HT-29 cells” value in the assay with CA XII [3] is on record as “decreased”. Further, in the assay on CA IX [4], the “CA IX expression in HT-29 cells” value is “decreased”.
Take `C=CCc1ccc(OCCCCCCCCCCOc2ccc3ccc(=O)oc3c2)c(OC)c1` [Compound 66, 7-((10-(4-Allyl-2-methoxyphenoxy)decyl)oxy)-2H-chromen-2-one]: the IC50 in the assay on HEK293T cell line was 18.3 ± 3.08 µM; in the assay on MCF-7 cell line it was 17.8 ± 2.76 µM; in the assay on HT-29 cell line, 22 ± 5.63 µM; with PC-3 cell line, 25.6 ± 3.47 µM. For the same compound, the Ki (as a rule, the equilibrium dissociation constant of an inhibitor or competing ligand from its target) on hCA IX stood at 1.3 µM. Also, the “apoptotic/dead cells” value with HT-29 cells is listed as “increased apoptotic/dead cells”. Also, the “CA XII expression in HT-29 cells” value in the assay on CA XII [3] is given as “decreased”. For the same compound, the “CA IX expression in HT-29 cells” value with CA IX [4] was “decreased”.
With `Cc1ccc(C(C)C)cc1OCc1cn(CCCCCCOc2ccc3ccc(=O)oc3c2)nn1` [Compound 23, 7-((6-(4-((5-Isopropyl-2-methylphenoxy)methyl)-1H-1,2,3-triazol-1-yl)hexyl)oxy)-2H-chromen-2-one], the IC50 in the assay with HEK293T cell line was found to be 8.82 ± 1.42 µM; in the assay with MCF-7 cell line, 9.1 ± 3.93 µM; in the assay on HT-29 cell line, 12.1 ± 3.63 µM; in the assay on PC-3 cell line, 9.4 ± 3.35 µM. The compound further registered a Ki at hCA IX of 0.0019 µM. For the same compound, the “CA IX expression in MCF-7 cells” value with CA IX [1] was “decreased”. For the same compound, the “selectivity on HT-29 (cancer vs healthy cells) relative to dox” value in the assay with HT-29 cell line (compared with dox) is given as 3 fold. Further, the “apoptotic/dead cells” value in the assay on HT-29 cells is “increased apoptotic/dead cells”. Besides, in the assay on CA XII [2], the “CA XII expression in MCF-7 cells” value is recorded as “decreased”. Moreover, the “CA XII expression in HT-29 cells” value with CA XII [3] is on record as “decreased”. For the same compound, the “CA IX expression in HT-29 cells” value in the assay with CA IX [4] was “decreased”.
`C=CCc1ccc(OCCCCCCOc2ccc3ccc(=O)oc3c2)c(OC)c1` [Compound 63, 7-((6-(4-Allyl-2-methoxyphenoxy)hexyl)oxy)-2H-chromen-2-one]: the IC50 in the assay with HEK293T cell line is 40.6 ± 12.1 µM; in the assay on MCF-7 cell line, 3.91 ± 2.16 µM; with HT-29 cell line it was greater than 200 µM; in the assay on PC-3 cell line, 36.4 ± 12.3 µM. The “CA IX expression in MCF-7 cells” value with CA IX [1] is reported as “decreased”. Moreover, in the assay on CA XII [2], the “CA XII expression in MCF-7 cells” value is given as “decreased”.

The values above are taken from article PMC9933483, “Tail-Approach-Based Design and Synthesis of Coumarin-Monoterpenes as Carbonic Anhydrase Inhibitors and Anticancer Agents” (ACS Omega, 2023).
